The values below come from patent US6545041B2, “Tumor necrosis factor alpha (TNF-α) inhibiting pharmaceuticals” (Yessum Research Development Co. of the Hebrew University of …, priority 1995, dated 2003).

Data set [1] deals with LPS treated rats. Put plainly: LPS-induced hypotension and hematocrit in rats. In kind it is in vivo, Sprague Dawley rats. How it is done: A prominent manifestation of endotoxemia is hypotension, and the effect of a drug on mean arterial blood pressure (MABP) indicates its potency as an anti-endotoxic shock agent. The protective effect of a test compound is evaluated in rats treated with LPS, in which the blood pressure and other vital signs are monitored up to 4 hrs after induction of endotoxemia.
Rats were individually anesthetized with halothane in 70% nitrogen, 30% oxygen. The right femoral artery was catheterized using polyethylene tubes (PE-50, Clay Adams, USA), and connected to a computerized physiograph through a pressure transducer (XTT Vigo, USA). The animals are then connected via a rectal probe to the above physiological recorder. Rectal temperature is kept throughout the study between 37° C. and 38° C., using a heating lamp. Following 10-15 minutes of baseline recording, animals are intravenously administered an injection of saline, vehicle alone or HU-211 at a dose of 4 mg/kg. As soon as possible after completion of the first injection (2-5 minutes later) they are administered an intravenous injection of LPS at a dose of 15 mg/kg (in a volume of 3 ml/kg). Blood pressure and heart rate are recorded for the following 4 hrs. The hematocrit is measured and recorded just prior to drug administration, and 1, 2, and 3 hours later. At the end of the follow up period, animals are sacrificed by deep anesthesia with halothane.

Data set [2] has as its system LPS treated mice. Put plainly: Survival of LPS treated mice. Format: in vivo, BALB/c male mice. The note with it: for survival rate / mortality: 24 hours. The procedure: The effect of HU-211 on the survival of mice, in response to administration of LPS was assessed. The survival was followed up to 48 hr.
Animals are administered with either HU-211 at a dose of 10 mg/kg i.p. or vehicle alone (10 ml/kg i.p.), and 30 minutes later with LPS IV. Two dose levels of LPS were tested in the present study: 10 and 15 mg/kg.
Mortality rate was recorded once a day for 2 days.

In data set [3] the test system is TNF. Put plainly: Closed head injury (head trauma) model in rats: TNF, edema, clinical outcome. In kind it is in vivo, rat. The following applies: FIG. 4. The source says: Closed head injury is associated with high mortality and morbidity. It induces edema formation, blood-brain-barrier (BBB) disruption, neuronal cell death and impairment of motor and cognitive functions. Animals subjected to head trauma in a controlled fashion serve as models in which to test drugs of therapeutic potential. Test compounds can be evaluated both for improved clinical outcome and for reduction of edema induced by closed head injury. The ability of compounds to reduce the severity of neurological symptoms and to reduce brain edema is considered a measure of their potency in reducing brain damage.
The effect of HU-211 on TNF production was assessed in a model of head trauma (HT) in rats. Injury was induced in anesthetized rats by a weight-drop device followed by a recovery period of up to 30 days. This type of trauma produces brain edema (i.e. increase in water content, decrease in specific gravity in the brain), breakdown of the blood brain barrier (BBB), clinical and cognitive dysfunction. […]
In this experiment we compared the effects of two agents: 1) pentoxyfilline (PTX), a methylxanthine known for its ability to prevent or attenuate the LPS-induced release of TNF both in vitro and in vivo. […] The levels of TNF were measured after CHI in order to determine whether the beneficial effect of HU-211 is also associated with suppression of TNF production or activity.

Data set [4] has as its system D-galactosamine (D-GALN)-sensitized mice. Put plainly: Lethal toxicity by LPS in D-galactosamine-sensitized mice (endotoxic shock). In kind it is in vivo, mice (C57BL/6). The following applies: for lethality in HU-211 treated group dead/total: LPS 10 ng/mouse + D-GALN, HU-211 7.5 mg/kg plus 8 hourly injections, 24 hrs, exp. no 1-3 and total, controls 20/20, 7.5 mg/kg. The procedure:
The effect of HU-211 in endotoxic shock was assessed in a model of lethal toxicity by lipopolysacharide (LPS) in D-galactosamine (D-GALN)-sensitized mice (Galanos et al. PNAS 76: 5739, 1979, Lehman et al. J. Exp. Med. 165: 657, 1987). In this model 100% mortality occurs within 6-8 hrs of administration of the combined treatment.
LPS (10 ng/mouse) and D-GALN ([…]) were coadministered to 20 mice (C57BL/6). Half of the mice served as controls, and the other were treated within 5 min of injection with HU-211 (7.5 mg/kg body weight), followed by 8 additional injections every hour. The survival was followed up to 24 hrs, and the results of this experiment are depicted in Table 1.

A short description of data set [5]: Solubility in water / aqueous solutions. Format: physicochemical. The text has this: Among the novel compounds tested, monoesters including nicotinate, succinate and maleate are preferred. Most preferred compounds include the glycinate ester and N-substituted glycinate ester salts, such as the trimethyl- and triethylammonium acetate derivatives of HU-211. These novel compounds have the added advantage of being soluble in some aqueous solutions, whereas the parent compounds are extremely hydrophobic.
This makes the development of formulations suitable for intravenous administration of HU-211 difficult, hampering its clinical application. Water-soluble derivatives of HU-211 designed to readily release the drug by hydrolysis following i.v. administration might overcome this problem and will be used as prodrugs.

SMILES strings stand for the structures. Several values for one entry are separate records, joined by “and”; a condition that tells them apart may be missing. Identical values can stand only once. Bounds are passed on as bounds.

As usually defined, the mortality is the percentage killed. With `CCCCCCC(C)(C)c1cc(O)c2c(c1)OC(C)(C)[C@H]1CC=C(CO)C[C@H]21` [HU-211, (+)-(3S,4S)-1,1-dimethylheptyl homologue of 7-hydroxy-Δ^6-tetrahydrocannabinol], in data set [1] (HU-211 treated rats), the “time post-LPS at which normotension was regained” value was no more than 30 min. Further, in data set [1] (HU-211 treated rats, evident 10 minutes after LPS), the “duration of transient hypotension” value lay in the range of 5 to 10 min. Also, in data set [1] (rats, HU-211 iv 2-3 minutes before LPS, LPS alone about 10% increase), the “LPS-induced increase in hematocrit” value was “prevented”. In data set [1] (rats, LPS 15 mg/kg iv, HU-211 4 mg/kg iv pre-administration, LPS alone around 30% reduction), the “LPS-induced drop in mean arterial blood pressure (MABP)” value was “abolished”. The survival rate in data set [2] (LPS 10 mg/kg iv, HU-211 10 mg/kg i.p., vehicle 43%) was 91%; in data set [2] (LPS 15 mg/kg iv, HU-211 10 mg/kg i.p., vehicle 33%), 67%. Also, the mortality in data set [2] (LPS 10 mg/kg iv, HU-211 10 mg/kg i.p., vehicle 57%) is 9%; in data set [2] (LPS 15 mg/kg iv, HU-211 10 mg/kg i.p. 30 min before, vehicle 67%), 33%. For the same molecule, the survival in data set [2] (LPS 10 mg/kg iv, HU-211 10 mg/kg i.p., 48 hours, vehicle none survived) was 33%; in data set [2] (LPS 10 mg/kg iv, HU-211 10 mg/kg i.p., 72 hours post LPS), “None of the animals survived”; in data set [2] (LPS 15 mg/kg iv, HU-211 10 mg/kg i.p., 48 hours), “none of the animals survived”; in data set [4] (LPS + D-GALN mice, HU-211 7.5 mg/kg, total of experiments, controls 0%) it was 90%. Moreover, the “brain levels of TNF after CHI, compared with pentoxyfilline” value in data set [3] is reported as “significantly superior to that of pentoxyfilline”. The “brain tissue water content (anti-edema effect) after CHI, compared with pentoxyfilline” value in data set [3] is listed as “significantly superior to that of pentoxyfilline”. For the same molecule, the “lethality in HU-211 treated group dead/total” value in data set [4] was 1/5 and 1/10 and 0/5; in data set [4] (pooled total of all experiments), 2/20. Moreover, in data set [5], the “solubility in water / aqueous solutions” value was “very poor solubility in water”.
